{"source": "patent US20220031840A1", "about": "“Method of Treatment” (HaemaLogix Pty Ltd, priority 2018, published 2022)", "key": {"[1]": {"test_system": "human anti-chimeric antibody (HACA) against kappamab", "experiment": "Human anti-chimeric antibody (HACA) sandwich ELISA", "type": "in vivo", "conditions": "Day 45 post infusion, any patient", "description": "Blood samples were taken at pre-infusion and at completion of the treatment phase (Day 45 post infusion) for measurement of HACA responses. The presence of HACA was measured using a validated sandwich ELISA. Briefly, kappamab was immobilized on ELISA plates and the captured antibodies were detected using biotinylated kappamab and ExtrAvidie-alkaline phosphatase (Sigma, USA) followed by the alkaline phosphatase (AP) substrate. Goat anti-human IgG was used as the positive control for the assay."}, "urine κFLC": {"test_system": "urine κFLC", "experiment": "24-hour urine κFLC (FreeLite assay)", "type": "in vivo, human", "excerpt": "Serum FLC levels were quantified using the FreeLite™ assay (The Binding Site Group Ltd, Birmingham, UK). […] Twenty-four-hour urine collection for urine protein electrophoresis immunofixation, urine FLC measurement (FreeLite™ assay), and creatinine clearance were collected on the day of infusion and on Day 45."}, "serum M protein": {"test_system": "serum M protein", "experiment": "Serum M protein after kappamab", "type": "in vivo, human"}, "[2]": {"test_system": "48 human cytokines, chemokines, and growth factors", "experiment": "Biomarker analysis, Bio-Plex 27-plex and 21-plex, mixed-effects model", "type": "in vivo", "conditions": "48 cytokines", "description": "(§1) Patient serum samples for biomarker analysis were collected approximately 30 minutes before infusion of kappamab and then at 6, 48, 192, and 1,080 hours after infusion for all patients. Samples were analysed in triplicate and serum levels of 48 human cytokines, chemokines, and growth factors were measured using the Bio-Plex Pro™ Human Cytokine 27-plex and 21-plex assays according to the manufacturer's recommendations (Bio-Rad, Carlsbad, Calif., USA; Cat No M10-0KCAF0Y, mg0-005KMII). Results were verified by repeating the 21-plex assay in triplicate and the samples were randomized across the assay plate. Pre-infusion samples were used as the baseline (t=0) for the analysis.\n(§2) Multivariate analysis of the biomarker data was performed using R version 3.1.0 (2014-04-10) software (http://www.R-project.org/). Linear mixed effects modelling was completed using 1me4 (Bates et al. 2015). […]\n(§3) To find significance between kappamab dose, time, and cytokine expression levels, we fitted a linear mixed-effects model that modelled cytokine fluorescence expression levels with fixed-effects terms for baseline cytokine fluorescence expression, kappamab dose (with 4 levels: 0.3, 1.0, 3.0, and 10 mg/kg), time (treated as factor with 5 levels), and cytokine with 48 levels, plus their interactions, with a random effect associated with patient (12 levels) and plex (2 levels). […]"}, "[3]": {"test_system": "macrophage inhibitory factor (MIF)", "experiment": "Biomarker analysis: serum MIF", "type": "in vivo, human", "conditions": "adjusted for cytokine baseline differences", "description": "as §1, §2, §3"}, "HGF": {"test_system": "HGF", "experiment": "Biomarker analysis: serum HGF", "type": "in vivo, human", "conditions": "adjusted for cytokine baseline differences", "description": "as §1, §2, §3"}, "multiple myeloma": {"test_system": "multiple myeloma", "experiment": "Myeloma response, 18FDG-PET scan", "type": "in vivo, human", "description": "FIG. 5. ^[…]-positron emission tomography (^18FDG-PET) scans for Patient 8 (who was receiving lenalidomide) prior to kappamab treatment (Panel A) and 30 days after intravenous infusion with 3.0 mg/kg kappamab (Panel B). ^18FDG-PET scanning was performed encompassing the skull vertex down to the knees on the combined PET/Computed Tomography (CT) scanner and a contemporaneous low-dose, non-contrast CT scan was performed for the purposes of attenuation correction and to provide anatomical correlation. […] In the spine, disease is most prominent within the sacrum. In the appendicular skeleton, disease is most pronounced within the proximal femur, where a prosthetic rod is in situ. No metabolically active disease is present outside the bones. In Panel B, ^18FDG-PET scanning was performed as before to assess the response 30 days after kappamab treatment. […] Low-grade uptake on the right lower lateral chest wall was […] and may reflect physiological muscular activity.\nAs patients only received a single infusion of kappamab it was not anticipated that any conventional responses would be observed."}}}
{"substance": "kappamab: humanized form of K121 anti-KMA antibody; VH SEQ ID NO: 1, VL SEQ ID NO: 2", "values": [{"measurement": "HACA response to kappamab", "setting": "[1]", "value": "no antibody responses to kappamab were detected"}, {"measurement": "Patients with a decrease in urine κFLC", "setting": "urine κFLC; Day 1, 8/12 patients", "value": 67, "unit": "%"}, {"measurement": "Patients with a decrease in urine κFLC", "setting": "urine κFLC; Day 45 post infusion, 7/12 patients", "value": 58, "unit": "%"}, {"measurement": "Urine κFLC", "setting": "urine κFLC; Patient 1, Day 1", "value": 144, "unit": "mg/24 hours"}, {"measurement": "Urine κFLC percent change from baseline", "setting": "urine κFLC; Patient 1, Day 1", "value": "−31", "unit": "%"}, {"measurement": "Urine κFLC", "setting": "urine κFLC; Patient 1, Day 45", "value": 107, "unit": "mg/24 hours"}, {"measurement": "Urine κFLC percent change from baseline", "setting": "urine κFLC; Patient 1, Day 45", "value": "−49", "unit": "%"}, {"measurement": "Urine κFLC", "setting": "urine κFLC; Patient 2, Day 1", "value": 1902, "unit": "mg/24 hours"}, {"measurement": "Urine κFLC percent change from baseline", "setting": "urine κFLC; Patient 2, Day 1", "value": "−27", "unit": "%"}, {"measurement": "Urine κFLC percent change from baseline", "setting": "urine κFLC; Patient 2, Day 45", "value": "−13", "unit": "%"}, {"measurement": "Urine κFLC", "setting": "urine κFLC; Patient 2, Day 45, exceeds upper limit of quantitation", "value": "> 2272", "unit": "mg/24 hours"}, {"measurement": "Urine κFLC", "setting": "urine κFLC; Patient 3, Day 1", "value": 1143, "unit": "mg/24 hours"}, {"measurement": "Urine κFLC percent change from baseline", "setting": "urine κFLC; Patient 3, Day 1", "value": "−15", "unit": "%"}, {"measurement": "Urine κFLC", "setting": "urine κFLC; Patient 3, Day 45", "value": 5964, "unit": "mg/24 hours"}, {"measurement": "Urine κFLC percent change from baseline", "setting": "urine κFLC; Patient 3, Day 45", "value": "+343%"}, {"measurement": "Urine κFLC", "setting": "urine κFLC; Patient 4, Day 1", "value": 24, "unit": "mg/24 hours"}, {"measurement": "Urine κFLC percent change from baseline", "setting": "urine κFLC; Patient 4, Day 1", "value": "+85%"}, {"measurement": "Urine κFLC", "setting": "urine κFLC; Patient 4, Day 45", "value": 18, "unit": "mg/24 hours"}, {"measurement": "Urine κFLC percent change from baseline", "setting": "urine κFLC; Patient 4, Day 45", "value": "+38%"}, {"measurement": "Urine κFLC", "setting": "urine κFLC; Patient 5, Day 1", "value": 31, "unit": "mg/24 hours"}, {"measurement": "Urine κFLC percent change from baseline", "setting": "urine κFLC; Patient 5, Day 1", "value": "−68", "unit": "%"}, {"measurement": "Urine κFLC", "setting": "urine κFLC; Patient 5, Day 45", "value": 103, "unit": "mg/24 hours"}, {"measurement": "Urine κFLC percent change from baseline", "setting": "urine κFLC; Patient 5, Day 45", "value": "+6%"}, {"measurement": "Urine κFLC", "setting": "urine κFLC; Patient 6, Day 1", "value": 38, "unit": "mg/24 hours"}, {"measurement": "Urine κFLC percent change from baseline", "setting": "urine κFLC; Patient 6, Day 1", "value": "−17", "unit": "%"}, {"measurement": "Urine κFLC", "setting": "urine κFLC; Patient 6, Day 45", "value": 45, "unit": "mg/24 hours"}, {"measurement": "Urine κFLC percent change from baseline", "setting": "urine κFLC; Patient 6, Day 45", "value": "−2", "unit": "%"}, {"measurement": "Urine κFLC", "setting": "urine κFLC; Patient 7, Day 1", "value": 390, "unit": "mg/24 hours"}, {"measurement": "Urine κFLC percent change from baseline", "setting": "urine κFLC; Patient 7, Day 1", "value": "+25%"}, {"measurement": "Urine κFLC", "setting": "urine κFLC; Patient 7, Day 45", "value": 286, "unit": "mg/24 hours"}, {"measurement": "Urine κFLC percent change from baseline", "setting": "urine κFLC; Patient 7, Day 45", "value": "−8", "unit": "%"}, {"measurement": "Urine κFLC", "setting": "urine κFLC; Patient 8, Day 1", "value": 34, "unit": "mg/24 hours"}, {"measurement": "Urine κFLC percent change from baseline", "setting": "urine κFLC; Patient 8, Day 1", "value": "+278%"}, {"measurement": "Urine κFLC", "setting": "urine κFLC; Patient 8, Day 45", "value": 25, "unit": "mg/24 hours"}, {"measurement": "Urine κFLC percent change from baseline", "setting": "urine κFLC; Patient 8, Day 45", "value": "+178%"}, {"measurement": "Urine κFLC", "setting": "urine κFLC; Patient 9, Day 1", "value": 49, "unit": "mg/24 hours"}, {"measurement": "Urine κFLC percent change from baseline", "setting": "urine κFLC; Patient 9, Day 1", "value": "−13", "unit": "%"}, {"measurement": "Urine κFLC", "setting": "urine κFLC; Patient 9, Day 45", "value": 39, "unit": "mg/24 hours"}, {"measurement": "Urine κFLC percent change from baseline", "setting": "urine κFLC; Patient 9, Day 45", "value": "−30", "unit": "%"}, {"measurement": "Urine κFLC", "setting": "urine κFLC; Patient 10, Day 1", "value": 13, "unit": "mg/24 hours"}, {"measurement": "Urine κFLC percent change from baseline", "setting": "urine κFLC; Patient 10, Day 1", "value": "−69", "unit": "%"}, {"measurement": "Urine κFLC", "setting": "urine κFLC; Patient 10, Day 45", "value": 40, "unit": "mg/24 hours"}, {"measurement": "Urine κFLC percent change from baseline", "setting": "urine κFLC; Patient 10, Day 45", "value": "−5", "unit": "%"}, {"measurement": "Urine κFLC", "setting": "urine κFLC; Patient 12, Day 1", "value": 297, "unit": "mg/24 hours"}, {"measurement": "Urine κFLC percent change from baseline", "setting": "urine κFLC; Patient 12, Day 1", "value": "−9", "unit": "%"}, {"measurement": "Urine κFLC", "setting": "urine κFLC; Patient 12, Day 45", "value": 363, "unit": "mg/24 hours"}, {"measurement": "Urine κFLC percent change from baseline", "setting": "urine κFLC; Patient 12, Day 45", "value": "+11%"}, {"measurement": "Urine κFLC", "setting": "urine κFLC; Patient 13, Day 1", "value": 166, "unit": "mg/24 hours"}, {"measurement": "Urine κFLC percent change from baseline", "setting": "urine κFLC; Patient 13, Day 1", "value": "+12%"}, {"measurement": "Urine κFLC", "setting": "urine κFLC; Patient 13, Day 45", "value": 29, "unit": "mg/24 hours"}, {"measurement": "Urine κFLC percent change from baseline", "setting": "urine κFLC; Patient 13, Day 45", "value": "−80", "unit": "%"}, {"measurement": "Dose-related trend in urinary excretion of κFLC", "setting": "urine κFLC; within each dose cohort", "value": "no consistent dose-related trend"}, {"measurement": "Patients with minor dose-related decreases in serum M protein", "setting": "serum M protein; 7/11 patients", "value": 64, "unit": "%"}, {"measurement": "Serum M protein response versus IMWG response criteria", "setting": "serum M protein; in vivo", "value": "did not meet the IMWG response criteria"}, {"measurement": "Increases in serum cytokine concentrations in response to treatment", "setting": "[2]", "value": "No increases"}, {"measurement": "Change in serum concentration", "setting": "[3]", "value": "dose-related decreases"}, {"measurement": "Change in serum concentration", "setting": "HGF", "value": "dose-related decreases"}, {"measurement": "18FDG-PET metabolic response", "setting": "multiple myeloma; Patient 8 (receiving lenalidomide), 3 mg/kg, 30 days after infusion versus baseline scan, 3 mg/kg", "value": "favourable and almost complete metabolic response"}, {"measurement": "Symptomatic improvement", "setting": "multiple myeloma; Patient 8, 3 mg/kg", "value": "diminished bone pain and normalization of kidney function"}]}
